From patent US5567693A, “Method for inhibiting angiogenesis, proliferation of endothelial or tumor cells and tumor growth” (American Cyanamid Company, priority 1994, dated 1996)
Several values for one entry are separate records, joined by “and”; a condition that tells them apart may be missing. Equal entries are not always repeated. Structures can show the parent of a compound that is named as a salt. Where two headings read alike, the source gives them in different places.

Experiments:
[1] = test system: angiogenesis; conditions: Brem et al, cited from earlier work; for inhibition of angiogenesis: WO92/12717
[2] = test system: A2780/DDP; assay: Antiproliferative activity in human tumor cell lines: A2780/DDP (ovarian); assay type: cell-based; conditions: PROTOCOL 1 and PROTOCOL 2, 48 hours
Method: (§1) The assays are identified as follows:
(§2) PROTOCOL 1,2,and 3 are described in greater detail hereinbelow. In general, according to PROTOCOLS 1 and 2, the target ABAE and/or Human Tumor cells are exposed to the compounds of Formula I for 48 hours. PROTOCOL 3 exposes ABAE cells to the compounds for 4 days. A detailed description of the protocols is as follows:
(§3) The antiproliferative activity of the compounds of Formula I of the present invention is evaluated in a panel comprised of human tumor cell lines and an adult bovine aortic endothelial cell line (ABAE). The human tumor cell lines are from
(§4) Cultures are renewed after 20 passages with cells from a fresh stock of batch-frozen early passage cells. Cell lines are routinely checked for mycoplasma contamination (Genprobe). In a laminar flow hood, cells (1-5×10^4) are plated into 96-well microtiter plates in a volume of 0.1 ml/well with a bulk microtiter dispenser (Denley). […] Compounds are added using a Tomtec dispenser which simultaneously dispenses from one 96-well plate, containing the drug dilutions, to the plates containing the cells. After two days of continuous drug exposure, 50% cold trichloroacetic acid (TCA) is added to 10% final concentration to fix the cells, and after 60 minutes at 4° C., the TCA is aspirated and the plates are washed 5 times with deionized water using a microtiter plate washer. […] A 0.4% solution of the dye, sulforhodamine B, in […] is added to the plates, and the plates are washed 5 times with 1% glacial acetic acid using the automatic plate washed. The bound stain is solubilized with 0.1 ml of 10 mM Tris base. The optical densities are read from an automatic spectrophotometric plate reader (Dynatech) directly to a main frame computer (VAX 8600).
(§5) Positive controls, that include standard chemotherapeutic drugs (i.e., Adriamycin, Cisplatin, etc.), are included in every experiment.
(§6) Background optical density measurements (complete media-cells, and complete media+drug-cells) are automatically subtracted from the appropriate control and test wells. Mean values and standard errors are determined from duplicate wells. A measure is also made of the optical density at time when the drugs are added. The number of cells after treatment (P), as % of control, is calculated for every concentration of drug, as follows: [formula] wherein: T is optical density measurement for treated cells after 48 hours;
(§7) C is optical density measurement for untreated cells after 48 hours;
(§8) Co is optical density measurement for cells at the time of drug addition.
(§9) IC50 of growth inhibition is calculated from the sets of P values using the RS-1 data package (BBN Software).
(§10) The antiproliferative activity of the compounds of Formula I is evaluated in a panel comprised of human tumor cell lines and an adult bovine aortic cell line (ABAE) as listed in PROTOCOL 1. This assay is a modification of PROTOCOL 1. The modifications include:
(§11) 1) each concentration for each compound is tested in a single well;
(§12) 2) compounds are tested at 20, 4, 0.8, 0.16 microgram/ml and additionally in some experiments at 100 and 0.32 microgram/ml;
(§13) 3) samples are pipetted into a 96-well plate for each of the cell lines by a Beckman Biomek 1000 SL robot;
(§14) 4) after fixing with TCA each well is washed with 0.35 ml distilled water twice, not five times;
(§15) 5) after staining with sulforhodamine B each well is washed 3 times, not five times;
(§16) 6) the growth inhibition (I) as % of control, is calculated using the RS-1 data package (BBN Software), for every concentration of drug, as follows: [formula] wherein: T is optical density measurement for treated cells after 48 hours;
(§17) 7) IC50 of growth inhibition is determined graphically from dose response curves, as is known in the art.

[3] = test system: CACO2; assay: Antiproliferative activity in human tumor cell lines: CACO2 (colon); assay type: cell-based; conditions: CACO2 colon tumor, PROTOCOL 1 and PROTOCOL 2, 48 hours
Method: (§18) The antiproliferative activity of the compounds of Formula I in an Adult Bovine Aortic Endothelial (ABAE) cell line and in Human Tumor cell lines is evaluated in three similar assays that measure growth inhibition. The assays are identified as follows:
as §2, §3
(§19) All cell lines are maintained in log phase in RPMI 1640 media, supplemented with 5% fetal calf serum, penicillin/streptomycin and 2 mM L-glutamine. Cultures are renewed after 20 passages with cells from a fresh stock of batch-frozen early passage cells. Cell lines are routinely checked for mycoplasma contamination (Genprobe). In a laminar flow hood, cells (1-5×10^4) are plated into 96-well microtiter plates in a volume of 0.1 ml/well with a bulk microtiter dispenser (Denley). […] At this concentration, dimethylsulfoxide has no effect on cell growth. Compounds are added using a Tomtec dispenser which simultaneously dispenses from one 96-well plate, containing the drug dilutions, to the plates containing the cells. After two days of continuous drug exposure, 50% cold trichloroacetic acid (TCA) is added to 10% final concentration to fix the cells, and after 60 minutes at 4° C., the TCA is aspirated and the plates are washed 5 times with deionized water using a microtiter plate washer. The number of cells on the plate are quantitated using a protein dye-binding assay (Monks et al., 1991). A 0.4% solution of the dye, sulforhodamine B, in glacial acetic acid is added to the plates, and the plates are washed 5 times with 1% glacial acetic acid using the automatic plate washed. The bound stain is solubilized with 0.1 ml of 10 mM Tris base. The optical densities are read from an automatic spectrophotometric plate reader (Dynatech) directly to a main frame computer (VAX 8600).
as §5, §6, §7, §8, §9, §10, §11, §12, §13, §14
(§20) 5) after staining with sulforhodamine B each well is washed 3 times, not five times; […]

[4] = test system: HTB 161; assay: Antiproliferative activity in human tumor cell lines: HTB 161 (ovarian); assay type: cell-based; conditions: HTB 161 ovarian tumor, PROTOCOL 1 and PROTOCOL 2, 48 hours
Method: as §1, §2, §3, §4, §5, §6, §7, §8, §9, §10, §11, §12, §13, §14, §15, §16, §17

[5] = test system: Adult Bovine Aortic Endothelial (ABAE) cell line; assay: Antiproliferative activity in ABAE cell line, PROTOCOL 2; assay type: cell-based; conditions: PROTOCOL 2, 48 hours
Method: as §18, §2
Antiproliferative Activity in Human Tumor and Adult Bovine Aortic Endothelial Cell Lines (ABAE)
as §10, §11, §12, §13, §14, §15, §16, §7, §17
Table 1 presents the results depicting the antiproliferative activity of the compounds of Formula I against an Adult Bovine Aortic Endothelial cell line (ABAE), as evaluated by PROTOCOL 1 and 2. The results are presented in terms of IC50 and are as follows.

[6] = test system: Human Tumor cell lines; assay: Antiproliferative activity in the panel of human tumor cell lines; assay type: cell-based; conditions: Homo sapiens; average over the 6 tumor cell lines
Method: as §18, §2, §3, §19, §5, §6, §7, §8, §9, §10, §11, §12, §13, §14, §20

[7] = test system: SW620; assay: Antiproliferative activity in human tumor cell lines: SW620 (colon); assay type: cell-based; conditions: SW-620, SW620 colon tumor, PROTOCOL 1 and PROTOCOL 2, 48 hours, read-out: IC50
Method: as §18, §2, §3, §19, §5, §6, §7, §8, §9, §10, §11, §12, §13, §14, §20

[8] = test system: A2780S; assay: Antiproliferative activity in human tumor cell lines: A2780S (ovarian); assay type: cell-based; conditions: PROTOCOL 1 and PROTOCOL 2, 48 hours
Method: as §1, §2, §3, §4, §5, §6, §7, §8, §9, §10, §11, §12, §13, §14, §15, §16, §17

[9] = test system: MIP; assay: Antiproliferative activity in human tumor cell lines: MIP (colon); assay type: cell-based; conditions: PROTOCOL 1 and PROTOCOL 2, 48 hours
Method: as §18, §2, §3, §19, §5, §6, §7, §8, §9, §10, §11, §12, §13, §14, §20

[10] = test system: tumor growth; conditions: in conjunction with cancer chemotherapy or radiation therapy; Teicher et al; cited from earlier work
[11] = test system: Adult Bovine Aortic Endothelial (ABAE) cell line; assay: Antiproliferative activity in ABAE cell line, PROTOCOL 3 (4 day assay); assay type: cell-based; conditions: 4 day assay (PROTOCOL 3)
Method: as §18, §2
Antiproliferative Activity in Adult Bovine Aortic Endothelial (ABAE) Cell Line
ABAE cells are grown in DMEMmedia (Mediatech, Washington, D.C.) supplemented with 10% calf serum (Hyclone). ABAE cells are plated in 24-well dishes at 8,000 cells/well, followed by the addition of increasing concentrations of 7-(hydrogen or di(C1 -C4)alkylamino)-8-halogen-9-(substituted)-6-demethyl-6-deoxytetracycline. After four days, the cells are detached and counted. […] The growth inhibition (I) as % of control is calculated as follows: [formula] wherein: Nc is the number of cells in untreated wells;
Nt is the number of cells in treated wells;
No is the number of plated cells.
IC50 of growth inhibition is determined from the sets of I values plotted by Kaleidograph software (Abelbeck Software).
In addition FIG. 1, presents the dose response curve for the compound of Example 10 for the above ABAE cell line obtained by using PROTOCOL 3.

[12] = Homo sapiens, Caco-2, read-out: IC50

Compound	inhibition of angiogenesis [1]	IC50 [2]	IC50 [3, 12]	IC50 [4]	IC50 ([5]; Bos taurus, read-out: IC50)	IC50 [6]	IC50 [7]	IC50 [8]	IC50 [9]	also measured
CN(C)[C@@H]1C(O)=C(C(N)=O)C(=O)[C@@]2(O)C(O)=C3C(=O)c4c(O)ccc(Cl)c4[C@@](C)(O)[C@H]3C[C@@H]12 [Chlortetracycline]	useful as inhibitors of angiogenesis	–	–	–	–	–	–	–	–	–
CN(C)[C@@H]1C(O)=C(C(N)=O)C(=O)[C@@]2(O)C(O)=C3C(=O)c4c(O)ccc(Cl)c4[C@@H](O)[C@H]3C[C@@H]12 [Demeclocycline]	useful as inhibitors of angiogenesis	–	–	–	–	–	–	–	–	–
CC(C(=O)Nc1c(Cl)cc2c(c1O)C(=O)C1=C(O)[C@]3(O)C(=O)C(C(N)=O)=C(O)[C@@H](N(C)C)C3CC1C2)N1CCCC1 (stereo partly drawn) [Example 13, 7S-(7α,10aα)]-N-[9-(Aminocarbonyl)-3-chloro-7-(dimethylamino)-5,5a,6,6a,7,10,10a,12-octahydro-1,8,10a,11-tetrahydroxy-10,12-dioxo-2-naphthacenyl]-α-methyl-1-pyrrolidineacetamide dihydrochloride]	–	1 µg/mL	3 µg/mL	1 µg/mL	3 µg/mL	1.3 µg/mL	1 µg/mL	1 µg/mL	–	–
CC(C(=O)Nc1c(Cl)cc2c(c1O)C(=O)C1=C(O)[C@]3(O)C(=O)C(C(N)=O)=C(O)[C@@H](N(C)C)C3CC1C2)N1CCCCC1 (stereo partly drawn) [Example 14, 7S-(7α, 10aα)]-N-[9-(Aminocarbonyl)-3-chloro-7-(dimethylamino)-5,5a,6,6a,7,10,10a,12-octahydro-1,8,10a,11-tetrahydroxy-10,12-dioxo-2-naphthacenyl]-α-methyl-1-piperidineacetamide dihydrochloride]	–	< 0.16 µg/mL	0.7 µg/mL	< 0.16 µg/mL	< 0.8 µg/mL	–	< 0.16 µg/mL	< 0.16 µg/mL	< 0.16 µg/mL	–
CC(C)NCC(=O)Nc1c(Cl)cc2c(c1O)C(=O)C1=C(O)[C@]3(O)C(=O)C(C(N)=O)=C(O)[C@@H](N(C)C)C3CC1C2 (stereo partly drawn) [Example 15, [4S-(4α,12aα)]-8-Chloro-4-(dimethylamino)-1,4,4a,5,5a,6,11,12a,-octahydro-3,10,12,12a-tetrahydroxy-1,11-dioxo-9-[[[(1-methylethyl)amino]acetyl]amino]-2-naphthacenecarboxamide dihydrochloride]	–	–	–	–	< 1 µg/mL	–	–	–	–	–
CCC(C(=O)Nc1c(Cl)cc2c(c1O)C(=O)C1=C(O)[C@]3(O)C(=O)C(C(N)=O)=C(O)[C@@H](N(C)C)C3CC1C2)N(C)C (stereo partly shown) [Example 18, dihydrochloride]	–	3 µg/mL	11 µg/mL	3 µg/mL	16 µg/mL	4.8 µg/mL	3 µg/mL	–	4 µg/mL	–
CCC(C(=O)Nc1c(Cl)cc2c(c1O)C(=O)C1=C(O)[C@]3(O)C(=O)C(C(N)=O)=C(O)[C@@H](N(C)C)C3CC1C2)N1CCCC1 (stereo partly shown) [Example 19, dihydrochloride]	–	1 µg/mL	4 µg/mL	2 µg/mL	4 µg/mL	2.3 µg/mL	3 µg/mL	1 µg/mL	3 µg/mL	–
CN(C)[C@@H]1C(O)=C(C(=O)NCNCCCC[C@H](N)C(=O)O)C(=O)[C@@]2(O)C(O)=C3C(=O)c4c(O)cccc4[C@@](C)(O)[C@H]3C[C@@H]12 [Lymecycline]	useful as inhibitors of angiogenesis	–	–	–	–	–	–	–	–	–
CN(C)c1ccc(O)c2c1C[C@H]1C[C@H]3[C@H](N(C)C)C(O)=C(C(N)=O)C(=O)[C@@]3(O)C(O)=C1C2=O [Minocycline]	useful as inhibitors of angiogenesis	–	–	–	–	–	–	–	–	inhibition of angiogenesis compared with combination therapy of heparin and cortisone ([1]; Cancer Research 51, 672-675): inhibits angiogenesis to an extent comparable to that of the combination therapy of heparin and cortisone; number of metastases [10]: the number of metastases is reduced; tumor growth [10]: tumor growth is decreased; activity upon incubation with cells [11]: loosing its activity upon incubation with cells
[4S-(4α,12aα)]-8 -Chloro-4-(dimethylamino)-9-[[(2-(dimethylamino) -1-oxopropyl]amino]-1,4,4a,5,5a,6,11,12a-octahydro-3,10,12,12a-tetrahydroxy-1,11-dioxo-9-[[[(1-methylethyl)amino]acetyl]amino]-2-naphthacenecarboxamide dihydrochloride [Example 16]	–	–	–	–	–	–	–	–	–	IC50 ([3]; dihydrochloride): 4.0 µg/mL and 8.0 µg/mL; IC50 [5]: 3 µg/mL
